Data taken from patent US11622990B2, “VAP polypeptide and use thereof in preparation of drug for targeted diagnosis and treatment of tumor” (FUDAN UNIVERSITY, priority 2016, dated 2023).
Ends that are not written are not given here.

Assays:
GRP78 protein [1] = molecular target: T1, GRP78 protein (Homo sapiens, UniProt P11021); test: Binding activity of VAP to GRP78 by surface plasmon resonance (Biacore); conditions: SPR, GRP78 coupled to CM5 chip
Procedure: Pre-binding analysis was performed by the biacore system, and pH 5.0 was selected as the optimal pH for GRP78 binding to the CMS chip. […] The samples were injected from low to high concentration.

[2] = Serum stability of VAP peptides in mouse serum; type: in vitro ADME; conditions: 50% mouse serum, 37° C., after 2 h incubation
Procedure: At 0 and 15 min, 0.5, 1, 2 and 4 h, 100 μL solution was taken out and 20 μL trichloroacetic acid (TCA) was added to precipitate protein of the serum, after standing for 20 min at 4° C., the solution was centrifuged at 12,000 rpm for 10 min. 20 μL supernatant was taken for HPLC analysis.

GRP78 protein [3] = molecular target: T1, GRP78 protein; test: VAP mutual competition inhibition test on U87 cells (flow cytometry); type: cell-based; parameters: saturate the receptor protein on the cell surface; endogenous in cells; host or cells: U87 glioma cells; conditions: 4° C., unlabeled peptide before fluorescein-labeled peptide
Procedure: U87 cells were digested by trypsin and transferred to EP tubes, washed with PBS three times to remove trypsin, pretreated at 4° C. for 20 min. The prepared peptide solution (non-fluorescent label) was also placed at 4° C. for low temperature pretreatment, then the peptide solution was mixed with the cells and shocked for 2 h to saturate the receptor protein on the cell surface. Then the fluorescein-labeled peptide solution was added.

intracranial U87 tumor = test: Anti-glioblastoma efficacy test of intracranial glioma (survival); type: in vivo, nude mice
Procedure: After the nude mice was anesthetized and fixed with stereotaxic apparatus, intracranial U87 tumor bearing model was established on nude mice by implanted with U87 cells (5×10^5 cells dispersed in 5 μL of PBS buffer for each mouse) in the logarithmic growth phase into the right striatum (0.6 mm in front of […], 1.8 mm in the lateral direction, and 3 mm in depth). The status of naked mice was observed regularly. […] The total dose of DOX was 10 mg/Kg except 2.5 mg/Kg for low dose and 5 mg/kg for medium dose. The ^DVAP dose was the amount of ^DVAP contained in the high dose of ^DVAP-DOX. The survival time of mice were recorded (FIG. 24).

T1 sequence (P11021 19-654): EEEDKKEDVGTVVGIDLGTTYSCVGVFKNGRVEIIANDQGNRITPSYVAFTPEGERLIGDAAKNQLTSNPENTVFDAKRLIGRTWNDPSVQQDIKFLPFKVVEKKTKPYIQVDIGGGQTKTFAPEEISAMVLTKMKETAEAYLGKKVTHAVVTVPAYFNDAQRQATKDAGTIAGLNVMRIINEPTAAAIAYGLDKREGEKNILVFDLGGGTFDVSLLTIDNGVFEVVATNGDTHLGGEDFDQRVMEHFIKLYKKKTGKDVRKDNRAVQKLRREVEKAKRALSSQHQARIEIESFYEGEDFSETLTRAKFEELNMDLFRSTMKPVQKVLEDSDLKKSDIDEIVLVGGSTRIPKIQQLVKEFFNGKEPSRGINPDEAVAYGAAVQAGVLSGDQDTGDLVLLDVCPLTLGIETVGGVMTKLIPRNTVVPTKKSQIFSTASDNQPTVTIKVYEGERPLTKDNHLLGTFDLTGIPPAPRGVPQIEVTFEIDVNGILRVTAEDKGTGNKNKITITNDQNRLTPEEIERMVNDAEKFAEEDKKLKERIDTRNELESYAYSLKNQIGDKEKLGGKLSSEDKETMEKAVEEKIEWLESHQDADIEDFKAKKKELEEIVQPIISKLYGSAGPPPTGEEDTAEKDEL

Row | Kd (GRP78 protein [1]) | Kd value (dissociation) (GRP78 protein [1]) | residual percentage of intact polypeptide (degradation) [2] | competitive inhibition between VAP peptides (GRP78 protein [3]) | Compound | mean survival time (intracranial U87 tumor; total dose of DOX 10 mg/Kg (high dose), tail vein, days 10, 13, 16, 19, 22) | AUC0-6h (FIGS. 25A-25B) | MRT0-6h (FIGS. 25A-25B) | T1/2 (FIGS. 25A-25B) | mean survival time (intracranial U87 tumor; ^DVAP alone, amount contained in the high dose of ^DVAP-DOX)
1 | 5.22 µM | 0.02826 s⁻¹ | hardly degraded | completely inhibit each other | CC(C)[C@@H](NC(=O)[C@@H](CCCNC(=N)N)NC(=O)[C@H](NC(=O)[C@@H](CC(N)=O)NC(=O)[C@H](N)CO)[C@H](C)O)C(=O)N[C@H](C)C(=O)N1CCC[C@@H]1C(=O)O [^SVAP] | – | – | – | – | –
2 | – | – | – | – | COc1cccc2c1C(=O)c1c(O)c3c(c(O)c1C2=O)C[C@@](O)(C(=O)CO)C[C@@H]3O[C@H]1C[C@H](N)[C@H](O)[C@H](C)O1 [DOX, doxorubicin] | 36 days | 7.976 ± 1.515 µg·h/mL | 1.836 ± 0.695 h | 2.131 ± 0.646 h | –
3 | – | 0.01898 s⁻¹ | completely degraded | completely inhibit each other | SNTRVAP [^LVAP, reference compound] | – | – | – | – | –

Row | Compound | Kd (GRP78 protein [1]) | Kd value (dissociation) (GRP78 protein [1]) | residual percentage of intact polypeptide (degradation) [2] | competitive inhibition between VAP peptides (GRP78 protein [3]) | mean survival time (intracranial U87 tumor; total dose of DOX 10 mg/Kg (high dose), tail vein, days 10, 13, 16, 19, 22) | AUC0-6h (FIGS. 25A-25B) | MRT0-6h (FIGS. 25A-25B) | T1/2 (FIGS. 25A-25B) | mean survival time (intracranial U87 tumor; ^DVAP alone, amount contained in the high dose of ^DVAP-DOX)
4 | CC(C)[C@@H](NC(=O)[C@@H](C)NC(=O)[C@H]1CCCN1)C(=O)N[C@H](CCCNC(=N)N)C(=O)N[C@@H](C(=O)N[C@H](CC(N)=O)C(=O)N[C@H](CO)C(=O)O)[C@H](C)O [^DVAP] | – | 0.02091 s⁻¹ | hardly degraded | completely inhibit each other | – | – | – | – | 45.5 days
